{"source": "patent US7002010B2", "about": "“Process for the preparation of morpholinones as light stabilizers” (Ciba Specialty Chemicals Corporation, priority 2000, dated 2006)"}
{"smiles": "CC(N)(CO)COC(C)(C)C", "note": "(stereo not shown) [Compound 301, 2-amino-3-tert-butoxy-2-methyl-propan-1-ol]", "values": [{"measurement": "melting point", "value": "30 to 35", "unit": "°C"}]}
